# Test results: patent publication US9408839B2, “Antipsychotic treatment based on DRD2 or ANKK1 SNP genotype” (Vanda Pharmaceuticals, Inc., priority 2009, dated 2016)
# Assays:
# [1] = system: schizophrenic patients; details: cited from earlier work; for time to respond to antipsychotics, -141C Del allele carriers versus -141C Ins allele carriers: rs1799732 SNP; for time to respond to antipsychotics, -141C Del allele carriers versus -141C Ins allele carriers / improvement on treatment, C/C genotype versus non-C/C genotype: schizophrenic patients; for improvement on treatment, C/C genotype versus non-C/C genotype: rs6275 SNP
# [2] = system: patients with an acute exacerbation of schizophrenia; assay: Phase III clinical trial of iloperidone, change from baseline in PANSS-T by DRD2/ANKK1 SNP genotype; type: in vivo, human; details: iloperidone 24 mg/d; for PANSS-T mean change: day 14, white patients; for mean change in PANSS-T: day 14, white subpopulation
# Method: The clinical trial evaluated the efficacy of iloperidone in treating patients with diagnosed schizophrenia. The study, its results, and the inferences drawn therefrom are described below.
# A four-week, randomized, double-blind, placebo- and ziprasidone-controlled, multicenter inpatient phase III clinical trial of iloperidone was conducted, including 409 individuals, to assess the efficacy of iloperidone, as measured by changes in the Positive and Negative Syndrome Scale Total (PANSS-T).
# Patients, all diagnosed with an acute exacerbation of schizophrenia, were randomly assigned to one of three groups. A first group (n=218) received 24 mg/d (12 mg bid) of iloperidone, a second group (n=103) received 160 mg/d (80 mg bid) ziprasidone, and a third group (n=105) received a placebo. Efficacy was measured by a change from baseline in PANSS-T score.
smiles,measurement,setting,value
CN(C)CCCN1c2ccccc2Sc2ccc(Cl)cc21 [chlorpromazine],"time to respond to antipsychotics, -141C Del allele carriers versus -141C Ins allele carriers",[1],significantly longer time to respond
O=C(CCCN1CCC(O)(c2ccc(Cl)cc2)CC1)c1ccc(F)cc1 [haloperidol],"improvement on treatment, C/C genotype versus non-C/C genotype",[1],greater improvement
"COc1cc(C(C)=O)ccc1OCCCN1CCC(c2noc3cc(F)ccc23)CC1 [iloperidone, 1-[4-[3-[4-(6-flouro-1,2-benzisoxazol-3-yl)-1-piperidinyl]propoxy]-3-methoxyphenyl]ethanone]",PANSS-T mean change,[2]; rs2283265 G/T genotype,−2.4 (±3.0)
same,PANSS-T mean change,[2]; rs2283265 non-G/T genotype,−11.8 (±2.0)
same,mean change in PANSS-T,[2]; rs1800497 (Taq1A) A1/A2 patients,−2.1 (±2.7)
same,mean change in PANSS-T,[2]; rs1800497 (Taq1A) non-A1/A2 patients,−12.7 (±2.1)
Cc1nc2n(c(=O)c1CCN1CCC(c3noc4cc(F)ccc34)CC1)CCCC2 [risperidol],"improvement on treatment, C/C genotype versus non-C/C genotype",[1],greater improvement
Cc1nc2n(c(=O)c1CCN1CCC(c3noc4cc(F)ccc34)CC1)CCCC2 [risperidone],"time to respond to antipsychotics, -141C Del allele carriers versus -141C Ins allele carriers",[1],significantly longer time to respond
same,"response to treatment, -241A allele carriers versus -241G allele carriers","[1]; rs1799978 SNP, some patients",greater response
